# Assays:
# barnyardgrass (Ec) [1] = assay: Test Example 1: herbicidal effects by paddy field soil treatment; type: in vivo; details: 100 g of the active ingredient per 10 ares, 21st day after the application, index 0-5 of Table 47;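 further: grade of growth control; 5 = at least 90%; 4 = 70 to 90%; 3 = 50 to 70%; 2 = 30 to 50%; 1 = 10 to 30%; 0 = under 10%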
# In short: (§1)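 Flooded paddy-soil pots (3 cm water) sown after puddling/leveling; treatment 100 g a.i./10 ares; greenhouse culture; herbicidal effect rated visually on a scoring scale at 21 d post-application.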
# bulrush (Sc) = assay: as above; type: in vivo; details: 100 g of the active ingredient per 10 ares, 21st day after the application, index 0-5 of Table 47;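 further: grade of growth control; 5 = at least 90%; 4 = 70 to 90%; 3 = 50 to 70%; 2 = 30 to 50%; 1 = 10 to 30%; 0 = under 10%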
# In short: as §1
# monochoria (Mo) = assay: as above; type: in vivo; details: 100 g of the active ingredient per 10 ares, 21st day after the application, index 0-5 of Table 47;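 further: grade of growth control; 5 = at least 90%; 4 = 70 to 90%; 3 = 50 to 70%; 2 = 30 to 50%; 1 = 10 to 30%; 0 = under 10%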
# In short: as §1
# Digitaria ciliaris (Di) = assay: Test Example 2: herbicidal effects by upland field soil treatment; type: in vivo; details: 100 g of the active ingredient per 10 ares, evaluated on the 21st day after application;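 further: grade of growth control; 5 = at least 90%; 4 = 70 to 90%; 3 = 50 to 70%; 2 = 30 to 50%; 1 = 10 to 30%; 0 = under 10%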
# Source text: (§2) (Test on Herbicidal Effects by Upland Field Soil Treatment)
# barnyardgrass (Ec) [2] = assay: as above; type: in vivo; details: 100 g of the active ingredient per 10 ares, evaluated on the 21st day after application
# Source text: as §2
# [3] = tested on: common lambsquarters (Ch); assay: as above; type: in vivo; details: 100 g of the active ingredient per 10 ares, evaluated on the 21st day after application
# Source text: as §2
# pale smartweed (Po) [4] = assay: as above; type: in vivo; details: 100 g of the active ingredient per 10 ares, evaluated on the 21st day after application
# Source text: as §2
# rice flatsedge (Ci) [5] = assay: as above; type: in vivo; details: 100 g of the active ingredient per 10 ares, evaluated on the 21st day after application
# Source text: as §2
# slender amaranth (Am) [6] = assay: as above; type: in vivo; details: 100 g of the active ingredient per 10 ares, evaluated on the 21st day after application
# Source text: as §2
# Diaitaria ciliaris (Di) = assay: Test Example 3: herbicidal effects by upland field foliage treatment; type: in vivo; parameters: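 grade of growth control; 5 = at least 90%; 4 = 70 to 90%; 3 = 50 to 70%; 2 = 30 to 50%; 1 = 10 to 30%; 0 = under 10%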; details: 100 g active ingredient per 10 ares, evaluated 14th day after treatment
# In short: (§3)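 Scoring used a standard effect scale on the 14th day post-treatment, with plants held in a greenhouse throughout. Foliar application was made to weeds raised from seed in sand-filled pots for 2 weeks.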
# barnyardgrass (Ec) [7] = assay: as above; type: in vivo; parameters: scale not given here; details: 100 g active ingredient per 10 ares, evaluated 14th day after treatment
# In short: as §3
# [8] = tested on: common lambsquarters (Ch); assay: as above; type: in vivo; parameters: scale not given here; details: 100 g active ingredient per 10 ares, evaluated 14th day after treatment
# In short: as §3
# pale smartweed (Po) [9] = assay: as above; type: in vivo; parameters: scale not given here; details: 100 g active ingredient per 10 ares, evaluated 14th day after treatment
# In short: as §3
# rice flatsedge (Ci) [10] = assay: as above; type: in vivo; parameters: scale not given here; details: 100 g active ingredient per 10 ares, evaluated 14th day after treatment
# In short: as §3
# slender amaranth (Am) [11] = assay: as above; type: in vivo; parameters: scale not given here; details: 100 g active ingredient per 10 ares, evaluated 14th day after treatment
# In short: as §3
# wheat (Tr) = assay: Test Example 9: crop plant selectivity by upland field foliage treatment (wheat), phytotoxicity; details: dose 1.6 g ai/10a, 14th day after treatment
# In short: (§4)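 Wheat and weeds sown in sand-filled pots, grown 2 weeks in a greenhouse, then foliage-treated. Herbicidal effect and crop phytotoxicity were scored 14 days after treatment against a rating scale.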
# China jute (Ab) [12] = assay: Test Example 9: crop plant selectivity by upland field foliage treatment (wheat), herbicidal effects; type: in vivo; parameters: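 grade of growth control; 5 = at least 90%; 4 = 70 to 90%; 3 = 50 to 70%; 2 = 30 to 50%; 1 = 10 to 30%; 0 = under 10%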; details: dose 1.6 g ai/10a, 14th day after treatment
# In short: as §4
# [13] = tested on: common lambsquarters (Ch); assay: as above; type: in vivo; parameters: scale not given here; details: dose 1.6 g ai/10a, 14th day after treatment
# In short: as §4
# pale smartweed (Po) [14] = assay: as above; type: in vivo; parameters: scale not given here; details: dose 1.6 g ai/10a, 14th day after treatment
# In short: as §4
# slender amaranth (Am) [15] = assay: as above; type: in vivo; parameters: scale not given here; details: dose 1.6 g ai/10a, 14th day after treatment
# In short: as §4
# soybean (Gl) = assay: Test Example 10: crop plant selectivity by upland field foliage treatment (soybean), phytotoxicity; details: dose 1.6 g ai/10a, 14th day after treatment
# Method: (§5) (Test on Crop Plant Selectivity by Upland Field Foliage Treatment)
# (§6) In a plastic pot (surface area: 600 cm^2) filled with sand, soybean (Gl), pale smartweed (Po), slender amaranth (Am), common lambsquarters (Ch) and China jute (Ab) were sown and cultured in a green house for 2 weeks. […] The plants were then cultured in a green house, and the evaluation of the herbicidal effects and phytotoxicity was conducted on the 14th day after the treatment in accordance with the standards as identified in Table 47.
# China jute (Ab) [16] = assay: Test Example 10: crop plant selectivity by upland field foliage treatment (soybean), herbicidal effects; type: in vivo; details: dose 1.6 g ai/10a, 14th day after treatment
# Method: as §5, §6
# [17] = tested on: common lambsquarters (Ch); assay: as above; type: in vivo; details: dose 1.6 g ai/10a, 14th day after treatment
# Method: as §5, §6
# pale smartweed (Po) [18] = assay: as above; type: in vivo; details: dose 1.6 g ai/10a, 14th day after treatment
# Method: as §5, §6
# slender amaranth (Am) [19] = assay: as above; type: in vivo; details: dose 1.6 g ai/10a, 14th day after treatment
# Method: as §5, §6
# corn (Ze) = assay: Test Example 11: crop plant selectivity by upland field foliage treatment (corn), phytotoxicity; details: upland field foliage treatment, dose 1.6 g ai/10a, 14th day after treatment
# In short: (§7)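 Corn and the weed species were sown together in sand-filled pots and grown in a greenhouse for 2 weeks before foliar treatment. Herbicidal effect was scored on day 14 after treatment against a graded standard scale, with corn phytotoxicity scored alongside.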
# China jute (Ab) [20] = assay: Test Example 11: crop plant selectivity by upland field foliage treatment (corn), herbicidal effects; type: in vivo; parameters: scale not given here; details: upland field foliage treatment (corn test), dose 1.6 g ai/10a, 14th day after treatment
# In short: as §7
# [21] = tested on: common lambsquarters (Ch); assay: as above; type: in vivo; parameters: scale not given here; details: upland field foliage treatment (corn test), dose 1.6 g ai/10a, 14th day after treatment
# In short: as §7
# pale smartweed (Po) [22] = assay: as above; type: in vivo; parameters: scale not given here; details: upland field foliage treatment (corn test), dose 1.6 g ai/10a, 14th day after treatment
# In short: as §7
# slender amaranth (Am) [23] = assay: as above; type: in vivo; parameters: scale not given here; details: upland field foliage treatment (corn test), dose 1.6 g ai/10a, 14th day after treatment
# In short: as §7
structure (smiles),measurement,setting,value
"C#CCOCc1cc(-c2ccc(C(F)(F)F)n(C)c2=O)c(F)cc1Cl [Compound No. 1-199, 3-(4-chloro-2-fluoro-5-propargyloxymethylphenyl)-1-methyl-6-trifluoromethyl-2(1H)-pyridone]",Herbicidal effects Ec,barnyardgrass (Ec) [1],5
same,Herbicidal effects Sc,bulrush (Sc),5
same,Herbicidal effects Mo,monochoria (Mo),5
same,Herbicidal effects Di,Digitaria ciliaris (Di),5
same,Herbicidal effects Ec,barnyardgrass (Ec) [2],5
same,Herbicidal effects Ch,[3],5
same,Herbicidal effects Po,pale smartweed (Po) [4],5
same,Herbicidal effects Ci,rice flatsedge (Ci) [5],5
same,Herbicidal effects Am,slender amaranth (Am) [6],5
same,Herbicidal effects Di,Diaitaria ciliaris (Di),5
same,Herbicidal effects Ec,barnyardgrass (Ec) [7],4
same,Herbicidal effects Ch,[8],5
same,Herbicidal effects Po,pale smartweed (Po) [9],5
same,Herbicidal effects Ci,rice flatsedge (Ci) [10],5
same,Herbicidal effects Am,slender amaranth (Am) [11],5
same,Phytotoxicity Tr,wheat (Tr),2
same,Herbicidal effects Ab,China jute (Ab) [12],5
same,Herbicidal effects Ch,[13],5
same,Herbicidal effects Po,pale smartweed (Po) [14],5
same,Herbicidal effects Am,slender amaranth (Am) [15],5
same,Phytotoxicity Gl,soybean (Gl),2
same,Herbicidal effects Ab,China jute (Ab) [16],5
same,Herbicidal effects Ch,[17],5
same,Herbicidal effects Po,pale smartweed (Po) [18],5
same,Herbicidal effects Am,slender amaranth (Am) [19],5
same,Phytotoxicity Ze,corn (Ze),2
same,Herbicidal effects Ab,China jute (Ab) [20],5
same,Herbicidal effects Ch,[21],5
same,Herbicidal effects Po,pale smartweed (Po) [22],5
same,Herbicidal effects Am,slender amaranth (Am) [23],5
same,melting point,,99 to 101 °C

# Reference: patent publication US6472348B1, “Pyridone derivatives and herbicides” (Kumiai Chemical Industry Co., Ltd., priority 1996, dated 2002)
